Patent US9988379B2, “GPR40 receptor agonist, methods of preparing the same, and pharmaceutical compositions containing the same as an active agent” (LG CHEM, LTD., priority 2012, dated 2018)

Molecular target: T1, human GPR40 (Homo sapiens, UniProt O14842)
T1 construct: expressed in transfected cells; host or cells: CHO-K1
Experiment: Induction of Ca2+ (calcium flux assay) using human GPR40 expression cell line
Assay type: cell-based
Conditions: read-out: EC0.5
Experimental: Evaluation of the Test Compounds for Induction of Ca^2+ Using Human GPR40 Expression Cell Line
The cell line expressing human GPR40 was generated by transfection of the GPR40 expression vector into CHO-K1 cell, and used in the following calcium flux assay.
The cell line was cultured in cell-culture medium (F-12 (Invitrogen) supplemented with 10% (v/v) FBS (Fetal Bovine Serum; Invitrogen), 0.5 mg/ml Geneticin (Invitrogen) and 1% (v/v) Antibiotic-Antimycotic solution (Invitrogen)) under the condition of 5% CO2 and 37° C. For calcium flux assay, the cells were diluted with the cell-culture medium to a concentration of 5×10^5 cells/ml, and the diluted cell suspension was dispensed in amount of 100 μl/well to a 96-well transparent bottom black polystyrene cell culture plate (Corning) and then cultured for 24 hours. The following concentrations of test compounds were added to these cells, and then the changes in intracellular calcium concentration were measured by FlexStation II384 (Molecular Devices). The following solution was prepared before the measurement.
First, a buffer solution for assay was prepared for use in the manufacture of fluorescent dye solution. This buffer solution was prepared by adding 1M HEPES solution (Invitrogen) to HBSS (Hanks' Balanced Salt Solution) (Invitrogen) and then adding 1M NaOH (Nacalai Tesque) to adjust pH to 7.4. Then the fluorescent dye solution was prepared according to the manufacturer's instruction attached to Calcium 5 Assay Kit (Molecular Devices), and the final DMSO concentration was adjusted to 2%.
The fluorescent dye solution was added in an amount of 100 μl/well to supernatant of the cell culture plate cultured for 24 hours. The plate was cultured for 1 hour under the condition of 5% CO2 and 37° C. so that the fluorescent dye was inserted into the cell.
Test compounds (i.e., the compounds prepared in the Examples) dissolved in dimethyl sulfoxide (DMSO ACROS) were diluted 200-fold in the buffer solution for assay to prepare compound solutions corresponding to the respective concentrations. […] 50 μl of the prepared sample solutions was added to each well of 96-well polypropylene plates (NUNC), and thereby a compound plate was prepared. Finally, the compound plate and the cell culture plate cultured for 1 hour with the fluorescent dye were placed in FlexStation II384.
After the above pre-treatment, the change in the intracellular calcium concentration when each concentration of the test compound solutions was added at 50 μl was measured by FlexStation II^384.
Then, the relative activity values depending on the concentration of the compound were plotted using Prism 4 software (GraphPad) to calculate the EC0.5 value.

T1 sequence (O14842 whole entry): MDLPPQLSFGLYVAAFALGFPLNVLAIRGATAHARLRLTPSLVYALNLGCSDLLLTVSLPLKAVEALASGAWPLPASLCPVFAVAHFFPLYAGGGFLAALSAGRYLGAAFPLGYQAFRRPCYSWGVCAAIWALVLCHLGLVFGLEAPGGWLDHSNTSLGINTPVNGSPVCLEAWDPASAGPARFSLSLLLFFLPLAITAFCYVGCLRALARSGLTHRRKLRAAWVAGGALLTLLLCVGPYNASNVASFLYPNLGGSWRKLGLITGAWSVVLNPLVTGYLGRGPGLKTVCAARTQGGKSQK

Row | SMILES | EC50
1 | CC#C[C@@H](CC(=O)O)c1ccc(OCc2ccc3ccn(Cc4cnc(C)cn4)c3c2C)cc1 [Example 44, (S)-3-{4-[7-methyl-1-(5-methyl-pyrazin-2-ylmethyl)-1H-indol-6-ylmethoxy]-phenyl}-hex-4-ynoic acid] | 1 to 50 nM
2 | CC#C[C@@H](CC(=O)O)c1ccc(OCc2cc(C)c3c(cnn3CC3CCCC3)c2)cc1 [Example 169, (S)-3-[4-(1-cyclopentylmethyl-7-methyl-1H-indazol-5-ylmethoxy)-phenyl]-hex-4-ynoic acid] | 1 to 50 nM
3 | CC#C[C@@H](CC(=O)O)c1ccc(OCc2ccc3ccn(Cc4ccc(F)cc4F)c3c2C)cc1 [Example 53, (S)-3-{4-[1-(2,4-difluoro-benzyl)-7-methyl-1H-indol-6-ylmethoxy]-phenyl}-hex-4-ynoic acid] | 50 to 500 nM
4 | CC#C[C@@H](CC(=O)O)c1ccc(OCc2ccc3cn(Cc4ccccc4)nc3c2)cc1 [Example 58, (S)-3-[4-(2-benzyl-2H-indazol-6-ylmethoxy)-phenyl]-hex-4-ynoic acid] | 1 to 50 nM
5 | CC#C[C@@H](CC(=O)O)c1ccc(OCc2ccc3cnn(CC4(C)COC4)c3c2)cc1 [Example 177, (S)-3-{4-[1-(3-methyl-oxetan-3-ylmethyl)-1H-indazol-6-ylmethoxy]-phenyl}-hex-4-ynoic acid] | 1 to 50 nM
6 | CC#C[C@@H](CC(=O)O)c1ccc(OCc2ccc3c(cnn3CCC(C)C)c2)cc1 [Example 136, (S)-3-{4-[1-(3-methyl-butyl)-1H-indazol-5-ylmethoxy]-phenyl}-hex-4-ynoic acid] | 1 to 50 nM
7 | CC#C[C@@H](CC(=O)O)c1ccc(OCc2cccc3c2c(F)nn3CC(C)C)cc1 [Example 189, (S)-3-[4-(3-fluoro-1-isobutyl-1H-indazol-4-ylmethoxy)-phenyl]-hex-4-ynoic acid] | 1 to 50 nM
8 | CC#C[C@@H](CC(=O)O)c1ccc(OCc2ccc3c(cnn3CC3CC3)c2)cc1 [Example 165, (S)-3-[4-(1-cyclopropylmethyl-1H-indazol-5-ylmethoxy)-phenyl]-hex-4-ynoic acid] | 1 to 50 nM
9 | CC#C[C@@H](CC(=O)O)c1ccc(OCc2cc(C)c3c(cnn3C3CCCC3)c2)cc1 [Example 171, (S)-3-[4-(1-cyclopentyl-7-methyl-1H-indazol-5-ylmethoxy)-phenyl]-hex-4-ynoic acid] | 1 to 50 nM
10 | CC#C[C@@H](CC(=O)O)c1ccc(OCc2cccc3c(CCC)nn(C)c23)cc1 [Example 210, (S)-3-[4-(1-methyl-3-propyl-1H-indazol-7-ylmethoxy)-phenyl]-hex-4-ynoic acid] | 8 nM
11 | CC#C[C@@H](CC(=O)O)c1ccc(OCc2ccc3ccn(Cc4ccccc4Cl)c3c2C)cc1 [Example 38, (S)-3-{4-[1-(2-chloro-benzyl)-7-methyl-1H-indol-6-ylmethoxy]-phenyl}-hex-4-ynoic acid] | 90 nM
12 | CC#C[C@@H](CC(=O)O)c1ccc(OCc2ccc3ccn(Cc4ccc(OC)cc4)c3c2C)cc1 [Example 28, (S)-3-{4-[1-(4-methoxy-benzyl)-7-methyl-1H-indol-6-ylmethoxy]-phenyl}-hex-4-ynoic acid] | 10 nM
13 | CC#C[C@@H](CC(=O)O)c1ccc(OCc2ccc3ccn(Cc4cnn(C)c4)c3c2C)cc1 [Example 63, (S)-3-{4-[7-methyl-1-(1-methyl-1H-pyrazol-4-ylmethyl)-1H-indol-6-ylmethoxy)-phenyl]-hex-4-ynoic acid] | 1 to 50 nM
14 | CCC(CC(=O)O)c1ccc(OCc2ccc3c(cnn3Cc3ccccc3)c2)cc1 (centres unmarked) [Example 159, 3-[4-(1-benzyl-1H-indazol-5-ylmethoxy)-phenyl]-pentanoic acid] | 100 nM
15 | CC(C)n1ccc2ccc(CNc3ccc(CCC(=O)O)cc3)cc21 [Example 1] | 100 nM

Continued, values first:

Row | EC50 | SMILES
16 | 600 nM | CC(C)n1ncc2ccc(COc3ccc4c(c3)OCC4CC(=O)O)cc21 (centres unmarked) [Example 100, [6-(1-isopropyl-1H-indazol-6-ylmethoxy)-2,3-dihydro-benzofuran-3-yl]-acetic acid]
17 | 1 to 50 nM | CC#C[C@@H](CC(=O)O)c1ccc(OCc2ccc3c(cnn3CC3CCOC3)c2)cc1 (stereo partly drawn) [Example 153, (S)-3-{4-[1-(tetrahydrofuran-3-ylmethyl)-1H-indazol-5-ylmethoxy]-phenyl}-hex-4-ynoic acid]
18 | 20 nM | CC#C[C@@H](CC(=O)O)c1ccc(OCc2cnc3c(cnn3CC(C)C)c2)cc1 [Example 156, (S)-3-[4-(1-isobutyl-1H-pyrazolo[3,4-b]pyridin-5-ylmethoxy)-phenyl]-hex-4-ynoic acid]
19 | 50 to 500 nM | CC#C[C@@H](CC(=O)O)c1ccc(OCc2ccc3ccn(Cc4cc(F)cc(F)c4)c3c2C)cc1 [Example 52, (S)-3-{4-[1-(3,5-difluoro-benzyl)-7-methyl-1H-indol-6-ylmethoxy]-phenyl}-hex-4-ynoic acid]
20 | 1 to 50 nM | CC#C[C@@H](CC(=O)O)c1ccc(OCc2cccc3nn(Cc4ccccc4)cc23)cc1 [Example 47, (S)-3-[4-(2-benzyl-2H-indazol-4-ylmethoxy)-phenyl]-hex-4-ynoic acid]
21 | 50 to 500 nM | CC#C[C@@H](CC(=O)O)c1ccc(OCc2ccc3cnn(Cc4cnccn4)c3c2)cc1 [Example 70, (S)-3-[4-(1-pyrazin-2-ylmethyl-1H-indazol-6-ylmethoxy]-phenyl}-hex-4-ynoic acid]
22 | 30 nM | Cc1c(COc2ccc([C@H](CC(=O)O)c3ccon3)cc2)ccc2ccn(Cc3cnccn3)c12 [Example 89, (S)-3-isoxazol-3-yl-3-[4-(7-methyl-1-pyrazin-2-ylmethyl-1H-indol-6-ylmethoxy)-phenyl]-propanoic acid]
23 | 70 nM | Cn1cc(Cc2ccccc2)c2cc(COc3ccc(CCC(=O)O)cc3)ccc21 [Example 20, 3-[4-(3-benzyl-1-methyl-1H-indol-5-ylmethoxy)-phenyl]-propanoic acid]
24 | 50 to 500 nM | Cc1cc(COc2ccc3c(c2)OCCC3CC(=O)O)cc2cnn(CC(C)C)c12 (centres unmarked) [Example 131, [7-(1-isobutyl-7-methyl-1H-indazol-5-ylmethoxy)-chroman-4-yl]-acetic acid]
25 | 10 nM | O=C(O)C[C@@H](c1ccc(OCc2ccc3cnn(CC4CCCC4)c3c2)cc1)c1ccon1 [Example 103, (S)-3-[4-(1-cyclopentylmethyl-1H-indazol-6-ylmethoxy)-phenyl]-3-isoxazol-3-yl-propanoic acid]
26 | 1 to 50 nM | CC#C[C@@H](CC(=O)O)c1ccc(OCc2ccc3c(c2)c(C)nn3CC(C)C)cc1 [Example 170, (S)-3-[4-(1-isobutyl-3-methyl-1H-indazol-5-ylmethoxy)-phenyl]-hex-4-ynoic acid]
27 | 10 nM | CC#C[C@@H](CC(=O)O)c1ccc(OCc2ccc3ccn(Cc4cccc(CS(C)(=O)=O)c4)c3c2C)cc1 [Example 35, (S)-3-{4-[1-(3-methanesulfonylmethyl-benzyl)-7-methyl-1H-indol-6-ylmethoxy]-phenyl}-hex-4-ynoic acid]
28 | 400 nM | CC(C)Cn1cc2ccc(COc3ccc([C@H](CC(=O)O)c4ccon4)cc3)cc2n1 [Example 88, (S)-3-[4-(2-isobutyl-2H-indazol-6-ylmethoxy)-phenyl]-3-isoxazol-3-yl-propanoic acid]
29 | 20 nM | O=C(O)CCc1ccc(OCc2ccc3ccn(-c4ccsc4)c3c2)cc1 [Example 13, 3-[4-(1-thiophen-3-yl-1H-indol-6-ylmethoxy)-phenyl]-propanoic acid]
30 | ≥ 500 nM | CC#C[C@@H](CC(=O)O)c1ccc(OCc2ccc3cn(Cc4ccncn4)nc3c2)cc1 [Example 76, (S)-3-[4-(2-pyrimidin-4-ylmethyl-2H-indazol-6-ylmethoxy]-phenyl}-hex-4-ynoic acid]
31 | 20 nM | Cc1c(COc2ccc(CCC(=O)O)cc2)ccc2ccn(-c3ccsc3)c12 [Example 16, 3-[4-(7-methyl-1-thiophen-3-yl-1H-indol-6-ylmethoxy)-phenyl]-propanoic acid]
32 | 1 to 50 nM | CC#C[C@@H](CC(=O)O)c1ccc(OCc2ccc3c(C)nn(CC(C)C)c3c2)cc1 [Example 178, (S)-3-[4-(1-isobutyl-3-methyl-1H-indazol-6-ylmethoxy)-phenyl]-hex-4-ynoic acid]
33 | 1 to 50 nM | CC#C[C@@H](CC(=O)O)c1ccc(OCc2cccc3c2cnn3CC(C)C)cc1 [Example 184, (S)-3-[4-(1-isobutyl-1H-indazol-4-ylmethoxy)-phenyl]-hex-4-ynoic acid]
34 | 1 to 50 nM | CC#C[C@@H](CC(=O)O)c1ccc(OCc2ccc3c(cnn3Cc3ccccc3)c2)cc1 [Example 111, (S)-3-[4-(1-benzyl-1H-indazol-5-ylmethoxy)-phenyl]-hex-4-ynoic acid]
35 | 1 to 50 nM | CC#C[C@@H](CC(=O)O)c1ccc(OCc2cc(C)c3c(cnn3CC(C)C)c2)cc1 [Example 130, (S)-3-[4-(1-isobutyl-7-methyl-1H-indazol-5-ylmethoxy)-phenyl]-hex-4-ynoic acid]
